This note sets out measurements from patent publication US12358896B2, “LRRK2 inhibitors and methods of making and using thereof” (DENALI THERAPEUTICS INC., priority 2019, dated 2025).

Structures are written as SMILES.

Broadly, the IC50 is the concentration at which inhibition is half-maximal. A low value points to inhibition by little substance. The term efflux ratio denotes the permeability from basolateral to apical divided by that in the opposite direction, in the common usage.

The target in data set [1] is LRRK2 G2019S enzyme (Homo sapiens, UniProt Q5S007, G2019S). Kind of data set: LRRK2 G2019S TR-FRET biochemical assay (Biological Example 1). The note with it: 134 μM ATP, 5 nM LRRK2, LRRKtide substrate. As to the method:
• LRRK2 G2019S enzyme • Substrate (LRRKtide) • ATP • TR-FRET dilution buffer • pLRRKtide antibody • 384-well assay plate • DMSO Enzyme Reaction Conditions • 50 mM Tris pH 7.5, 10 mM MgCl2, 1 mM EGTA, 0.01% Brij-35, 2 mM DTT • 5 nM LRRK2 • 134 μM ATP • 60 minute reaction time • 23° C. reaction temperature • 10 μL total reaction volume Detection Reaction Conditions • 1×TR-FRET dilution buffer • 10 mM EDTA • 2 nM antibody • 23° C. reaction temperature • 10 μL total reaction volume
Compounds are prepared by initially diluting to 1 mM with DMSO. 35 μL of reference compound solution, 35 μL of test compound solution, and 35 μL HPE are successively added to the source plate (384-well assay plate, Labcyte). The plates are centrifuged at 2500 rpm for 1 minute and sealed in foil. POD is used to perform a 3.162 fold serial dilution and 100 nL of reference compound solution, test compound solution, HPE and ZPE are transferred to assay plates. The assay plate is centrifuged at 2500 rpm for 1 minute, and sealed with foil.
To perform the enzyme reaction, 5 μL of LRRKtide substrate and kinase mixture in assay buffer is added to all wells of the assay plate. The plate is centrifuged to concentrate the mixture at the bottom of the wells. The assay plate is incubated at 23° C. for 20 minutes. Following incubation, 5 μL of 2×ATP in assay buffer is added to each well, and plates are centrifuged to concentrate the mixture at the bottom of the wells. The plate is incubated at 23° C. for 60 minutes.
To perform the detection of the reaction, EDTA completely mixed in TR-FRET dilution buffer is added to antibody reagent. 10 μL of detection reagent is added to all wells of each well of the assay plate and the plate is centrifuged to concentrate the mixture at the bottom of the wells. The plate is then incubated at 23° C. for 60 minutes. Plates are read on Perkin Elmer Envision 2104 instrument in TR-FRET mode using a 340 nm excitation filter, 520 nm fluorescence emission filter, and 490 or 495 nm terbium emission filter.
In general terms: Time-resolved FRET reads energy transfer from a long-lived donor to a nearby acceptor.

Data set [2] deals with T1, MDR1 (P-glycoprotein) (Homo sapiens, UniProt P08183).
T1 construct: expressed in transfected cells; host or cells: MDR1-MDCK cells
Kind of data set: MDR1-MDCK permeability / efflux (Biological Example 3). The note with it: MDR1-MDCK cells, pH 7.4; for efflux ratio at 1 μM: dog. Format: in vitro ADME. The protocol: The blood brain barrier (BBB) separates circulating blood from the extracellular fluid of the central nervous system (CNS). The passive membrane permeability (Papp) and MDR1 (P-glycoprotein) substrate efflux potential are determined using the MDR1-MDCK cell line as an in vitro model of the effective permeability of a compound through the BBB. A bidirectional assay was conducted in pre-plated MDR1-MDCK cells using a 12 or 96-well plate in the absence or presence of MDR1 inhibitor (GF120918 or Valspodar). Assays were run in duplicate in transport buffer (HBSS, pH 7.4) for 90 or 120 min (minutes) at 37° C., using a test article concentration of 1 μM. Monolayer integrity was confirmed using Lucifer yellow, and appropriate positive controls for passive permeability and MDR1 transport were included in each experiment. Following incubation, samples from donor and receiver compartments are removed and quenched with acetonitrile containing an appropriate internal standard (IS). Protein was precipitated by centrifugation for 10 min at 3220 g, and supernatants diluted in ultra-pure water (if necessary) prior to analysis by LC-MS/MS using appropriate MRM transitions for analytes and IS. Papp (apparent permeability expressed in cm/sec [centimeter/second]) values were calculated according to the following equation:
[formula] where VR is the solution volume in the receiver chamber (apical or basolateral side), Area is the surface area for the insert membrane), Time is incubation time expressed in seconds, CR is the peak area ratio (analyte/IS) in the receiver chamber, CA is the average of the initial and final concentrations in the donor chamber, and Co is the initial peak area ratio in the donor chamber. Papp was determined in both the apical to basolateral (A→B) and basolateral to apical (B→A) directions.
Monolayer efflux ratios (ER) were derived using the following equation: […]
Compounds with an MDR1-MDCK efflux ratio above 20 are not expected to cross the blood brain barrier.

T1 sequence (P08183 whole entry): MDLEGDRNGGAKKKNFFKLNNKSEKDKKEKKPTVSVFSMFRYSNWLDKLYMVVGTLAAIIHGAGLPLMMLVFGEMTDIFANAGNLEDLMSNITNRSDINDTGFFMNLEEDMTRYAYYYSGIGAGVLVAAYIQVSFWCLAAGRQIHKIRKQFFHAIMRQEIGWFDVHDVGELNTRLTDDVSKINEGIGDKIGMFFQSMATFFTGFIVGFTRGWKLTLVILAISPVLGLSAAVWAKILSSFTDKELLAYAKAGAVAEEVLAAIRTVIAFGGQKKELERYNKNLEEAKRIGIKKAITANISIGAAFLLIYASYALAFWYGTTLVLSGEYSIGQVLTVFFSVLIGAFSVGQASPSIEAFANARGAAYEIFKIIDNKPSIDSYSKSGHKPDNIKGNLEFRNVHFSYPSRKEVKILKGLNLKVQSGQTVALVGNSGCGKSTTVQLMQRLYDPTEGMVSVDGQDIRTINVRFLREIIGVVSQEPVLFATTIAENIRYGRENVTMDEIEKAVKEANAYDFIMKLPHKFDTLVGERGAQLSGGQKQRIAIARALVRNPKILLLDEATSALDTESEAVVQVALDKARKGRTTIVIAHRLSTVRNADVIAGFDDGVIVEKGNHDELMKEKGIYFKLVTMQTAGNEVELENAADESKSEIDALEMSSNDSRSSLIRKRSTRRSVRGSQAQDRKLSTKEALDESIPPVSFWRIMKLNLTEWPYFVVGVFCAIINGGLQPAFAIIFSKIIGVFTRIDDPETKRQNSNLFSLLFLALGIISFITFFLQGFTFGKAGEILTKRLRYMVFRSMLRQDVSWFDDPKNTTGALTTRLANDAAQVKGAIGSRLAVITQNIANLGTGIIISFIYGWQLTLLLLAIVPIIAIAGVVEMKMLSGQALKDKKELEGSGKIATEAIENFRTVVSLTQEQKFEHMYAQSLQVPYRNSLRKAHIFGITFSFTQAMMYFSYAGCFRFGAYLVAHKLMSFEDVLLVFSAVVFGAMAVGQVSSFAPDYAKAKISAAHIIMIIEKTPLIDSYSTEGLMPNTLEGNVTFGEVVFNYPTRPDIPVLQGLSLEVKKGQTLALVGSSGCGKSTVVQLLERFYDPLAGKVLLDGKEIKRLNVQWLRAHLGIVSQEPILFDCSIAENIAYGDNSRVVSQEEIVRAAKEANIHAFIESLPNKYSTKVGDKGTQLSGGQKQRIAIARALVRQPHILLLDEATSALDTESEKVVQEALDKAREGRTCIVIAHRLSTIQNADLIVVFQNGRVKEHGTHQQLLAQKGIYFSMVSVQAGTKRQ
LRRK2 G2019S enzyme, sequence (Q5S007 whole entry G2019S): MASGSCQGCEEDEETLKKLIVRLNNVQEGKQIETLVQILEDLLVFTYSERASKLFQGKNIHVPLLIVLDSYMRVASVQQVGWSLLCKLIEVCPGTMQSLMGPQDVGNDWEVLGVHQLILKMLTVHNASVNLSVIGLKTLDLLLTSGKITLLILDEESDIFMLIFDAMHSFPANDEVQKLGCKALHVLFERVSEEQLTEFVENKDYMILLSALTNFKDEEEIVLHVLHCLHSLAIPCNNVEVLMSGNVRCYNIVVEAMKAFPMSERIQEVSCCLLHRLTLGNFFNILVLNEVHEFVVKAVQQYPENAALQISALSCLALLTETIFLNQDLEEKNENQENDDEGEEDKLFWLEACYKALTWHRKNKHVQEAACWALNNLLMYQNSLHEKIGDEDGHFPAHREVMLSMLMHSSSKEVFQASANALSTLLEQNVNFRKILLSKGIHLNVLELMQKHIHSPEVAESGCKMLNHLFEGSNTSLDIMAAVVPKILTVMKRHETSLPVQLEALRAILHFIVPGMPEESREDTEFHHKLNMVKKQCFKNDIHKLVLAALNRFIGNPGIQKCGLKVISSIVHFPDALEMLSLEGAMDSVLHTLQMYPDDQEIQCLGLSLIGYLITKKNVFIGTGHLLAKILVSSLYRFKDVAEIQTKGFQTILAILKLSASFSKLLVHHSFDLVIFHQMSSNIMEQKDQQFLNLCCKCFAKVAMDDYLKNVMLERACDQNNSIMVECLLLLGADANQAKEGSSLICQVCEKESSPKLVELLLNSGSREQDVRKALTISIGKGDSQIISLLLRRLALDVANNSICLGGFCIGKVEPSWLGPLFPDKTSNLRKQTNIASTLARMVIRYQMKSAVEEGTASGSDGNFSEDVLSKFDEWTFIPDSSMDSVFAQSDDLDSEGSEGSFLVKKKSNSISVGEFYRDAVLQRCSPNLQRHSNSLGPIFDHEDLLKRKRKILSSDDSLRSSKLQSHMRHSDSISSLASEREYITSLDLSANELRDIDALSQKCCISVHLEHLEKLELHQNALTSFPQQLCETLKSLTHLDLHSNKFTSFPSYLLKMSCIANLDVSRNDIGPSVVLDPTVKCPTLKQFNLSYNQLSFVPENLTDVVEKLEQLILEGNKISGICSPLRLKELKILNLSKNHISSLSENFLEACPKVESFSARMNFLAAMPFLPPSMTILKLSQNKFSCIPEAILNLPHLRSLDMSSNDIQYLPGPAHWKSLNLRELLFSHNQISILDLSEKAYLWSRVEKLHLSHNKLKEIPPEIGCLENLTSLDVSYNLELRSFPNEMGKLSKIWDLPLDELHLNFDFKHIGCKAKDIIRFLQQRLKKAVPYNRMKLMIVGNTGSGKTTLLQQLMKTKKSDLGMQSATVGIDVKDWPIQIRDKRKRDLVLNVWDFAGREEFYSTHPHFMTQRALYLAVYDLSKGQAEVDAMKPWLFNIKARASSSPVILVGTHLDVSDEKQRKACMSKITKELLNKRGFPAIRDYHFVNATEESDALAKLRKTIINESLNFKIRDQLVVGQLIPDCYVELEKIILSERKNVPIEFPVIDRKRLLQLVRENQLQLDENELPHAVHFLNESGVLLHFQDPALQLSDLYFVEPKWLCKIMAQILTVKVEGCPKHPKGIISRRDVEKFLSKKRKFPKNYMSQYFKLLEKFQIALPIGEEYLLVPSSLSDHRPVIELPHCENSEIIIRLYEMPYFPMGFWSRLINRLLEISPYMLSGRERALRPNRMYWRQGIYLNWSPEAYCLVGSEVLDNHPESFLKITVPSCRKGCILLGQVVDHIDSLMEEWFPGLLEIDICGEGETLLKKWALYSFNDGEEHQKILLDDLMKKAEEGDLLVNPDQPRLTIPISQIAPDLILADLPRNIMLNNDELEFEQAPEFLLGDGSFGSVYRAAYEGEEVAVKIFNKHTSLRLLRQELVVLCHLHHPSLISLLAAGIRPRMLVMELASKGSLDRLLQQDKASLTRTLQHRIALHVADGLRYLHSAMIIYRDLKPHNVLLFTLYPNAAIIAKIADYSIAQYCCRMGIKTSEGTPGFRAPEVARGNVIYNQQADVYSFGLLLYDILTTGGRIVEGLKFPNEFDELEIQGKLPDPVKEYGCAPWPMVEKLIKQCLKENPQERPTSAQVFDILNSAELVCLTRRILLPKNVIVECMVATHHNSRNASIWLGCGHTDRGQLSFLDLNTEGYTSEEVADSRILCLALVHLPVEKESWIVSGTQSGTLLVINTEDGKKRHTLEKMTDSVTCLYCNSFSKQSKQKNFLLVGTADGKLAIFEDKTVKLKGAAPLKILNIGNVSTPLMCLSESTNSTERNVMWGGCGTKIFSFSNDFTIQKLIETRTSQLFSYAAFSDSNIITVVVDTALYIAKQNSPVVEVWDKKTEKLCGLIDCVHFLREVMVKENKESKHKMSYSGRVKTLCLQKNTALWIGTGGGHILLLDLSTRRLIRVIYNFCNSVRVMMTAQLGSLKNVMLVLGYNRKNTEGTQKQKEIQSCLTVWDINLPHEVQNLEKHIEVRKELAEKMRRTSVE

In turn, `CCNc1nc(Nc2cn([C@H]3C[C@H]3C(N)=O)nc2C2CC2)ncc1C(F)(F)F` (single isomer, unassigned) [Example 7, (1,2-cis)-2-(3-cyclopropyl-4-((4-(ethylamino)-5-(trifluoromethyl)pyrimidin-2-yl)amino)-1H-pyrazol-1-yl)cyclopropanecarboxamide] returned an IC50 in data set [1] of 1.47 nM. In addition, the efflux ratio at 1 μM in data set [2] came out at 110. Also, the “MDCK-MDR1 Efflux Avg” value in data set [2] (efflux ratio, 1 μM) is recorded as 110.

For `CCNc1nc(Nc2cc([C@H]3C[C@H]3C(N)=O)nn2C2CC2)ncc1C(F)(F)F` [Comparative Example A, reference compound], the midpoint of inhibition in data set [1], the IC50, lay at 1.41 nM. In data set [2], the efflux ratio at 1 μM was found to be 144.
